Test results reported in patent US8466202B2, “Anthracenedione compounds” (Sunten Phytotech Co., Ltd., priority 2006, dated 2013).
“And” between values parts separate entries of the source, which are not always exact repeats. Equal entries are not always repeated.

Experiments:
[1] = system: healthy male S.D. rats; assay: Feces production in rats over the 10-day period (Example 3); format: in vivo, rat; conditions: for increase of the feces amount (wet weight): vs control of the same group; for Pellet count / Water content / Wet Weight: Group II, Sennosides 3.35 mg/kg, STD05 24 mg/kg, ARE 24 mg/kg, Chrysophanol 4 mg/kg, Emodin 4 mg/kg
Description: During this period, the body weights of the rats were weighed each day and recorded. Feces of each rat were studied three times during the period for any unusual observations. Specifically, the amounts of feces were weighed on Days 11, 15, 18, and 21. During observation, each rat was placed in a metabolic cage. Feces were collected every twenty-four hours. The number of collected feces pellets was counted, and the pellets' shapes and colors were evaluated. After weighing the moist feces, they were dried in an oven at 100° C. for twenty-four hours. The water content from the feces was calculated according to the following formula: Water content percentage=[(wet weight−dry weight)/wet weight]×100%. (I) The results are summarized in Table 2 below: The aforementioned STD05 and compounds were studied for the laxative activity. Healthy male S.D. rats (BioLASCO Taiwan Co. Ltd.) were divided into three groups (i.e., Groups 1-3) in this study. In Group I, 6 rats, as negative control, were given no treatment; 6 rats, as positive control, were given 3.35 mg/kg/day Sennosides (Through®, Chung Mei Pharmaceutical Co., Ltd; Active ingredient: Sennosides 20 mg, as sennoside A+B 12 mg, Lot. 012F 006); 6 rats were treated STD05 (8 mg/kg/day); 6 rats were treated with an extract fraction containing aloe-emodin, rhein, and emodin (“ARE”, 8 mg/kg/day); 6 rats were treated with Aloe-emodin (4 mg/kg/day); and 6 rats were treated with Rhein (4 mg/kg/day). In Group II, 6 rats, as negative control, were given no treatment; 6 rats, as positive control, were given 3.35 mg/kg/day Sennosides; 6 rats were treated STD05 (24 mg/kg/day); 6 rats were treated with an extract fraction containing ARE (24 mg/kg/day); 6 rats were treated with Chrysophanol (4 mg/kg/day); and 6 rats were treated with Emodin (4 mg/kg/day). In Group III, 6 rats, as negative control, were given no treatment; 6 rats were treated with Physcoin (4 mg/kg/day); and 6 rats were treated with a mixture of chrysophanol and physcion (8 mg/kg/day, “CP”). The experiments were carried out under controlled temperature, humidity, and lighting. Each rat was fed standard rat food and water ad libitum in housing that provided a 12-hour light/dark cycle. For statistical comparison, all of the rats were divided into six sets according to the body weights. The first part of the experiment studied the effect of the test substances on feces production. During the 10-day period, the body weights of the rats were weighed each day and recorded. The rat's feces was also studied three times in the manner described above during the 10-day period for any unusual observations. During the 10-day period, any rat that appeared dying was euthanized, dissected, and examined for any illness or injury. Any complications or illness were analyzed by H&E stains to determine the cause of death and to allow for dosage reconsiderations for future experiments. Summarized in Table 4 below are the effects of the compounds, mixtures, or extracts on the rat body weights. During the period, feces produced by the rats were studied days 1, 5, and 10 in the same manner described above. […] In the 10-day period, the rats administered with STD05 produced more feces (wet weight) that the rats in the control group by about 32%. In addition, the pellet counts for the rats administered with STD05 were greater than those for the control rats by about 20%. Furthermore, STD05 increased the water content in feces by about 18%. The same experiments were conducted on rats administered with physcion, aloe-emodin, chrysophanol, rhein, emodin, CP, and ARE.

[2] = Side effects compared with Rheum palmatum Linne herb extracts (statement, no method given); conditions: general statement
[3] = Enteric absorption rate (statement, no method given); conditions: general statement
[4] = Body weight of rats over the 10-day period (Example 3); format: in vivo, rat; set-up: Body weight Difference: unit not given here; conditions: Group II, Sennosides 3.35 mg/kg/day, STD05 24 mg/kg, ARE 24 mg/kg, Chrysophanol 4 mg/kg, Emodin 4 mg/kg
Description: The aforementioned STD05 and compounds were studied for the laxative activity. Healthy male S.D. rats (BioLASCO Taiwan Co. Ltd.) were divided into three groups (i.e., Groups 1-3) in this study. In Group I, 6 rats, as negative control, were given no treatment; 6 rats, as positive control, were given 3.35 mg/kg/day Sennosides (Through®, Chung Mei Pharmaceutical Co., Ltd; Active ingredient: Sennosides 20 mg, as sennoside A+B 12 mg, Lot. 012F 006); 6 rats were treated STD05 (8 mg/kg/day); 6 rats were treated with an extract fraction containing aloe-emodin, rhein, and emodin (“ARE”, 8 mg/kg/day); 6 rats were treated with Aloe-emodin (4 mg/kg/day); and 6 rats were treated with Rhein (4 mg/kg/day). In Group II, 6 rats, as negative control, were given no treatment; 6 rats, as positive control, were given 3.35 mg/kg/day Sennosides; 6 rats were treated STD05 (24 mg/kg/day); 6 rats were treated with an extract fraction containing ARE (24 mg/kg/day); 6 rats were treated with Chrysophanol (4 mg/kg/day); and 6 rats were treated with Emodin (4 mg/kg/day). In Group III, 6 rats, as negative control, were given no treatment; 6 rats were treated with Physcoin (4 mg/kg/day); and 6 rats were treated with a mixture of chrysophanol and physcion (8 mg/kg/day, “CP”). The experiments were carried out under controlled temperature, humidity, and lighting. Each rat was fed standard rat food and water ad libitum in housing that provided a 12-hour light/dark cycle. For statistical comparison, all of the rats were divided into six sets according to the body weights. The first part of the experiment studied the effect of the test substances on feces production. During the 10-day period, the body weights of the rats were weighed each day and recorded. The rat's feces was also studied three times in the manner described above during the 10-day period for any unusual observations. During the 10-day period, any rat that appeared dying was euthanized, dissected, and examined for any illness or injury. Any complications or illness were analyzed by H&E stains to determine the cause of death and to allow for dosage reconsiderations for future experiments. Summarized in Table 4 below are the effects of the compounds, mixtures, or extracts on the rat body weights.

Cc1cc(O)c2c(c1)C(=O)c1cccc(O)c1C2=O [Chrysophanol, chrysophanol]
increase of the feces amount (wet weight) ([1]; Day 1): 19%
increase of the feces amount (wet weight) ([1]; Day 5): 16%
increase of the feces amount (wet weight) ([1]; Day 10): 14%
Pellet count ([1]; Day 1): 128
Water content ([1]; Day 1): 50.82%
Wet Weight ([1]; Day 1): 28.86 g
Pellet count ([1]; Day 5): 119
Water content ([1]; Day 5): 51.22%
Wet Weight ([1]; Day 5): 26.48 g
Pellet count ([1]; Day 10): 127
Water content ([1]; Day 10): 56.52%
Wet Weight ([1]; Day 10): 28.83 g
increase of the feces amount (wet weight), average ([1]; average of Days 1, 5 and 10): 16%
side effects often seen in herb extracts (cramping, bloating, gas, and diarrhea) [2]: do not have the side effects
enteric absorption rate [3]: very low
Body weight Difference, Mean ([4]; group mean, Day 10 minus Day 1): 33 g
Body weight End Day 10, Mean ([4]; group mean): 376 g
Body weight Difference ([4]; individual rats, Day 10 minus Day 1): 40 and 20 and 30 (2×) and 25 and 50
Body weight End Day 10 ([4]; individual rats): 370 (3×) and 385 and 350 and 410
